Results: the supplement of paper PMC7017272
± gives the standard deviation of the averaged measurements.

Assays:
Conditions in all cases: treatment time: 3 days
UT-SCC-24A = experiment: relative IC50 (midpoint of the fitted curve; maximal inhibition may be below 50%); higher = less potent
Experimental: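 HNSCC cell lines (500 cells/well, 384-well) were cultured on plastic, on top of (2D) or embedded (3D) in Matrigel or human leiomyoma matrix Myogel (500 ug/mL; Myogel 3D mixed with rat collagen I). Cells were treated for 3 days with 5 ten-fold concentrations of each drug, and viability was read by CellTiter-Glo. Viability was normalised to DMSO (0% inhibition) and 100 uM benzethonium chloride (100% inhibition) controls and fitted with the FIMM DSRT pipeline to give IC50 (nM), maximal % inhibition and the drug sensitivity score (DSS). Suffixes _1/_2/_3 on drug names are replicates.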

UT-SCC-40 [1] = experiment: maximal % inhibition of viability relative to DMSO; higher = stronger effect
Experimental: (§1)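 HNSCC cell lines (500 cells/well, 384-well) were cultured on plastic, on top of (2D) or embedded (3D) in Matrigel or human leiomyoma matrix Myogel (500 ug/mL; Myogel 3D mixed with rat collagen I). Cells were treated for 3 days with 5 ten-fold concentrations of each drug, and viability was read by CellTiter-Glo. Viability was normalised to DMSO and benzethonium chloride controls and fitted with the FIMM DSRT pipeline to give IC50 (nM), maximal % inhibition and DSS. Suffixes _1/_2/_3 are replicates. Only inhibition-mode (IC50) fits are kept.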

UT-SCC-42B [2] = experiment: as above
Experimental: as §1

UT-SCC-8 = experiment: as above
Experimental: as §1

UT-SCC-73 [3] = experiment: as above
Experimental: as §1

UT-SCC-81 [4] = experiment: as above
Experimental: as §1

UT-SCC-44 [5] = experiment: as above
Experimental: as §1

UT-SCC-24B [6] = experiment: as above
Experimental: as §1

UT-SCC-42A [7] = experiment: as above
Experimental: as §1

UT-SCC-40 [8] = experiment: relative IC50 (midpoint of the fitted curve; maximal inhibition may be below 50%); higher = less potent
Method in brief: (§2)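 Three growth formats were used for HPV-negative HNSCC cell lines in 384-well plates at 500 cells/well: bare plastic, wells coated with Matrigel or Myogel (500 µg/mL), and embedding in Matrigel or Myogel plus rat collagen I. Compounds were added at five 10-fold concentrations, and after 3 days CellTiter-Glo 2.0 luminescence was recorded and normalised to vehicle (0.1% DMSO) and cell-killing control wells. IC50, maximal inhibition and drug sensitivity score came from percent-inhibition dose–response fitting in the FIMM pipeline.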

UT-SCC-42B [9] = experiment: as above
Method in brief: as §2

UT-SCC-73 [10] = experiment: as above
Method in brief: as §2

UT-SCC-81 [11] = experiment: as above
Method in brief: as §2

UT-SCC-44 [12] = experiment: as above
Method in brief: as §2

UT-SCC-106A = experiment: as above
Method in brief: as §2

UT-SCC-24B [13] = experiment: as above
Method in brief: as §2

UT-SCC-42A [14] = experiment: as above
Method in brief: as §2

UT-SCC-14 = experiment: as above
Method in brief: as §2

[15] = culture condition: on top of Matrigel
[16] = culture condition: plastic 2D (no matrix)
[17] = culture condition: embedded in Matrigel
[18] = culture condition: embedded in Myogel + collagen I
[19] = culture condition: on top of Myogel

Cn1c(=O)c(F)c(Nc2ccc(I)cc2F)c2c(=O)n(C[C@@H](O)CO)cnc21 [TAK-733]
relative IC50 (UT-SCC-24A; [15]): 1.23 nM
relative IC50 (UT-SCC-24A; [16]): 1.21 nM
maximal % inhibition of viability (UT-SCC-40 [1]; [17]): 78.2 ± 1.2%
maximal % inhibition of viability (UT-SCC-40 [1]; [18]): 64 ± 2.1%
maximal % inhibition of viability (UT-SCC-40 [1]; [15]): 72.9 ± 2.1%
maximal % inhibition of viability (UT-SCC-40 [1]; [19]): 51 ± 0.89%
maximal % inhibition of viability (UT-SCC-40 [1]; [16]): 53.7 ± 0.74%
maximal % inhibition of viability (UT-SCC-42B [2]; [17]): 71.3 ± 7.9%
maximal % inhibition of viability (UT-SCC-42B [2]; [15]): 54 ± 1.3%
maximal % inhibition of viability (UT-SCC-42B [2]; [19]): 30.2 ± 3.9%
maximal % inhibition of viability (UT-SCC-42B [2]; [16]): 38.4 ± 5.8%
maximal % inhibition of viability (UT-SCC-8; [17]): 74.4 ± 12%
maximal % inhibition of viability (UT-SCC-8; [18]): 35.5 ± 26%
maximal % inhibition of viability (UT-SCC-8; [15]): 65.3 ± 12%
maximal % inhibition of viability (UT-SCC-8; [19]): 46.8 ± 21%
maximal % inhibition of viability (UT-SCC-8; [16]): 56.1 ± 17%
maximal % inhibition of viability (UT-SCC-73 [3]; [17]): 79.1 ± 1.5%
maximal % inhibition of viability (UT-SCC-73 [3]; [18]): 48.3 ± 16%
maximal % inhibition of viability (UT-SCC-73 [3]; [15]): 74.1 ± 1%
maximal % inhibition of viability (UT-SCC-73 [3]; [19]): 59.9 ± 4.8%
maximal % inhibition of viability (UT-SCC-73 [3]; [16]): 68.4 ± 3.9%
maximal % inhibition of viability (UT-SCC-81 [4]; [17]): 87.1 ± 4%
maximal % inhibition of viability (UT-SCC-81 [4]; [18]): 25 ± 12%
maximal % inhibition of viability (UT-SCC-81 [4]; [15]): 71.5 ± 6%
maximal % inhibition of viability (UT-SCC-81 [4]; [19]): 24.3 ± 5.5%
maximal % inhibition of viability (UT-SCC-81 [4]; [16]): 36.4 ± 2.3%
maximal % inhibition of viability (UT-SCC-44 [5]; [17]): 75.4 ± 0.62%
maximal % inhibition of viability (UT-SCC-44 [5]; [18]): 37.1 ± 8.1%
maximal % inhibition of viability (UT-SCC-44 [5]; [15]): 64.6 ± 10%
maximal % inhibition of viability (UT-SCC-44 [5]; [19]): 38.3 ± 4.8%
maximal % inhibition of viability (UT-SCC-44 [5]; [16]): 53.6 ± 3.3%
maximal % inhibition of viability (UT-SCC-24B [6]; [17]): 67.3 ± 1.5%
maximal % inhibition of viability (UT-SCC-24B [6]; [18]): 67.2 ± 1.2%
maximal % inhibition of viability (UT-SCC-24B [6]; [15]): 64.3 ± 1.3%
maximal % inhibition of viability (UT-SCC-24B [6]; [19]): 55.5 ± 2.2%
maximal % inhibition of viability (UT-SCC-24B [6]; [16]): 79.9 ± 1.1%
maximal % inhibition of viability (UT-SCC-42A [7]; [17]): 57.9 ± 2.6%
maximal % inhibition of viability (UT-SCC-42A [7]; [18]): 41.5 ± 27%
maximal % inhibition of viability (UT-SCC-42A [7]; [15]): 59.9 ± 5.2%
maximal % inhibition of viability (UT-SCC-42A [7]; [19]): 42.1 ± 5.3%
maximal % inhibition of viability (UT-SCC-42A [7]; [16]): 52.7 ± 3.6%
relative IC50 (UT-SCC-40 [8]; [17]): 2.68 nM
relative IC50 (UT-SCC-40 [8]; [18]): 6.76 nM
relative IC50 (UT-SCC-40 [8]; [15]): 4.29 nM
relative IC50 (UT-SCC-40 [8]; [19]): 13.8 nM
relative IC50 (UT-SCC-40 [8]; [16]): 10.6 nM
relative IC50 (UT-SCC-42B [9]; [17]): 1.54 nM
relative IC50 (UT-SCC-42B [9]; [19]): 80.8 nM
relative IC50 (UT-SCC-73 [10]; [17]): 2.4 nM
relative IC50 (UT-SCC-73 [10]; [18]): 3.82 nM
relative IC50 (UT-SCC-73 [10]; [15]): 3.23 nM
relative IC50 (UT-SCC-73 [10]; [19]): 9.54 nM
relative IC50 (UT-SCC-73 [10]; [16]): 5.35 nM
relative IC50 (UT-SCC-81 [11]; [15]): 5.89 nM
relative IC50 (UT-SCC-81 [11]; [16]): 151 nM
relative IC50 (UT-SCC-44 [12]; [17]): 3.37 nM
relative IC50 (UT-SCC-44 [12]; [18]): 108 nM
relative IC50 (UT-SCC-44 [12]; [16]): 7.56 nM
relative IC50 (UT-SCC-106A; [17]): 2.16 nM
relative IC50 (UT-SCC-106A; [15]): 2.3 nM
relative IC50 (UT-SCC-106A; [16]): 2.3 nM
relative IC50 (UT-SCC-24B [13]; [18]): 62.7 nM
relative IC50 (UT-SCC-24B [13]; [15]): 39.5 nM
relative IC50 (UT-SCC-42A [14]; [17]): 4.26 nM
relative IC50 (UT-SCC-42A [14]; [18]): 11.3 nM
relative IC50 (UT-SCC-42A [14]; [15]): 4.67 nM
relative IC50 (UT-SCC-42A [14]; [16]): 9.23 nM
relative IC50 (UT-SCC-14; [18]): 9.53 nM
relative IC50 (UT-SCC-14; [15]): 14.3 nM
relative IC50 (UT-SCC-14; [19]): 16.1 nM
